Assays:
[1] = tested on: rice (Oryza sative, variety: Koshihikari); experiment: Paddy field treatment (Test Example 3), crop; format: in vivo, Oryza sativa; details: transplanted rice two-leaf period, water surface treatment 10th day after transplantation, 1 kg active ingredient per hectare, evaluated 21st day, lower index = higher safety
How it was run: (§1)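 Index scores for herbicidal effect were read 21 days after treatment, higher meaning stronger effect. Treatment was a water-diluted wettable powder dropped onto flooded paddy soil at 1 kg active ingredient per hectare, 10 days after rice transplantation.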

soybean (Glycine max) [2] = experiment: Upland soil treatment (Test Example 2), crop; format: in vivo; details: soil surface treatment next day after sowing, 1 kg active ingredient per hectare, evaluated 21st day, lower index = higher safety
How it was run: (§2)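 Scored 21 days post-application on an index scale where higher values mean greater herbicidal effect on weeds and lower values mean greater crop safety. Treatment was a water-diluted wettable powder sprayed evenly onto the soil surface at 1 kg active ingredient per hectare, one day after seeding.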

[3] = tested on: wheat (Triticum aestivum); experiment: Upland soil treatment (Test Example 2), crop; format: in vivo; details: soil surface treatment next day after sowing, 1 kg active ingredient per hectare, evaluated 21st day, lower index = higher safety
How it was run: as §2

soybean (Glycine max) [4] = experiment: Upland field foliage treatment (Test Example 1), crop; format: in vivo; details: foliage treatment 14th day after sowing, 1 kg active ingredient per hectare, evaluated 21st day, lower index = higher safety
How it was run: (§3)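 Foliage application took place two weeks after sowing, at an active-ingredient rate of 1 kg/ha from a water-diluted wettable powder. Rating followed on the 21st day after application, using an index scale on which crop values rise as injury increases.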

[5] = tested on: wheat (Triticum aestivum); experiment: as above; format: in vivo; details: foliage treatment 14th day after sowing, 1 kg active ingredient per hectare, evaluated 21st day, lower index = higher safety
How it was run: as §3

Digitaria adscendens [6] = experiment: Upland field foliage treatment (Test Example 1); format: in vivo; details: foliage treatment 14th day after sowing, wettable powder, 1 kg active ingredient per hectare, evaluated 21st day after application
How it was run: as §3

Stellaria media [7] = experiment: Upland field foliage treatment (Test Example 1); format: in vivo; details: foliage treatment 14th day after sowing, wettable powder, 1 kg active ingredient per hectare, evaluated 21st day after application
How it was run: as §3

Setaria viridis [8] = experiment: Upland field foliage treatment (Test Example 1); format: in vivo; details: foliage treatment 14th day after sowing, wettable powder, 1 kg active ingredient per hectare, evaluated 21st day after application
How it was run: as §3

Chenopodium album [9] = experiment: Upland field foliage treatment (Test Example 1); format: in vivo; details: foliage treatment 14th day after sowing, wettable powder, 1 kg active ingredient per hectare, evaluated 21st day after application
How it was run: as §3

Digitaria adscendens [10] = experiment: Upland soil treatment (Test Example 2); format: in vivo; details: soil surface treatment next day after sowing, wettable powder, 1 kg active ingredient per hectare, evaluated 21st day after application
How it was run: as §2

Stellaria media [11] = experiment: Upland soil treatment (Test Example 2); format: in vivo; details: soil surface treatment next day after sowing, wettable powder, 1 kg active ingredient per hectare, evaluated 21st day after application
How it was run: as §2

Setaria viridis [12] = experiment: Upland soil treatment (Test Example 2); format: in vivo; details: soil surface treatment next day after sowing, wettable powder, 1 kg active ingredient per hectare, evaluated 21st day after application
How it was run: as §2

Chenopodium album [13] = experiment: Upland soil treatment (Test Example 2); format: in vivo; details: soil surface treatment next day after sowing, wettable powder, 1 kg active ingredient per hectare, evaluated 21st day after application
How it was run: as §2

Scirpus juncoides = experiment: Paddy field treatment (Test Example 3); format: in vivo; details: paddy pot, submerged 4 cm, dropped on water surface 10th day after transplantation, 1 kg active ingredient per hectare, evaluated 21st day
How it was run: as §1

Monochoria vaginalis = experiment: Paddy field treatment (Test Example 3); format: in vivo; details: paddy pot, submerged 4 cm, dropped on water surface 10th day after transplantation, 1 kg active ingredient per hectare, evaluated 21st day
How it was run: as §1

Ammannia multiflora = experiment: Paddy field treatment (Test Example 3); format: in vivo; details: paddy pot, submerged 4 cm, dropped on water surface 10th day after transplantation, 1 kg active ingredient per hectare, evaluated 21st day
How it was run: as §1

Echinochloa spp. = experiment: Paddy field treatment (Test Example 3); format: in vivo, Echinochloa crusgalli; details: paddy pot, submerged 4 cm, dropped on water surface 10th day after transplantation, 1 kg active ingredient per hectare, evaluated 21st day
How it was run: as §1

| Structure (SMILES) | Herbicidal activity Oryza sativa [1] | Herbicidal activity Glycine max (soybean (Glycine max) [2]) | Herbicidal activity Triticum aestivum [3] | Herbicidal activity Glycine max (soybean (Glycine max) [4]) | Herbicidal activity Triticum aestivum [5] | Herbicidal activity Digitaria adscendens (Digitaria adscendens [6]) | Herbicidal activity Stellaria media (Stellaria media [7]) | Herbicidal activity Setaria viridis (Setaria viridis [8]) | Herbicidal activity Chenopodium album (Chenopodium album [9]) | Herbicidal activity Digitaria adscendens (Digitaria adscendens [10]) | Herbicidal activity Stellaria media (Stellaria media [11]) | Herbicidal activity Setaria viridis (Setaria viridis [12]) | Herbicidal activity Chenopodium album (Chenopodium album [13]) | Herbicidal activity Scirpus juncoides (Scirpus juncoides) | Herbicidal activity Monochoria vaginalis (Monochoria vaginalis) | Herbicidal activity Ammannia multiflora (Ammannia multiflora) | Herbicidal activity Echinochloa spp. (Echinochloa spp.) |
| --- | --- | --- | --- | --- | --- | --- | --- | --- | --- | --- | --- | --- | --- | --- | --- | --- | --- |
| COC=C(Cn1cc(C)c(-c2ccc(F)cc2)n1)C(=O)OC [Compound 14] | 0 (herbicidal effect of not less than 0% by weight and less than 10% by weight) | 0 (herbicidal effect of not less than 0% by weight and less than 10% by weight) | 0 (herbicidal effect of not less than 0% by weight and less than 10% by weight) | 0 (herbicidal effect of not less than 0% by weight and less than 10% by weight) | 0 (herbicidal effect of not less than 0% by weight and less than 10% by weight) | 5 (herbicidal effect of not less than 90% by weight) | 5 (herbicidal effect of not less than 90% by weight) | 5 (herbicidal effect of not less than 90% by weight) | 5 (herbicidal effect of not less than 90% by weight) | 5 (herbicidal effect of not less than 90% by weight) | 5 (herbicidal effect of not less than 90% by weight) | 5 (herbicidal effect of not less than 90% by weight) | 5 (herbicidal effect of not less than 90% by weight) | 5 (herbicidal effect of not less than 90% by weight) | 5 (herbicidal effect of not less than 90% by weight) | 5 (herbicidal effect of not less than 90% by weight) | 5 (herbicidal effect of not less than 90% by weight) |
| COC=C(Cn1cc(Cl)c(-c2cccc(OC)c2)n1)C(=O)OC [Compound 16] | 0 (herbicidal effect of not less than 0% by weight and less than 10% by weight) | 0 (herbicidal effect of not less than 0% by weight and less than 10% by weight) | 0 (herbicidal effect of not less than 0% by weight and less than 10% by weight) | 1 (herbicidal effect of not less than 10% by weight and less than 30% by weight) | 0 (herbicidal effect of not less than 0% by weight and less than 10% by weight) | 5 (herbicidal effect of not less than 90% by weight) | 5 (herbicidal effect of not less than 90% by weight) | 5 (herbicidal effect of not less than 90% by weight) | 5 (herbicidal effect of not less than 90% by weight) | 5 (herbicidal effect of not less than 90% by weight) | 5 (herbicidal effect of not less than 90% by weight) | 5 (herbicidal effect of not less than 90% by weight) | 4 (herbicidal effect of not less than 70% by weight and less than 90% by weight) | 5 (herbicidal effect of not less than 90% by weight) | 5 (herbicidal effect of not less than 90% by weight) | 5 (herbicidal effect of not less than 90% by weight) | 5 (herbicidal effect of not less than 90% by weight) |
| COC=C(Cn1nc(-c2cc(Cl)ccc2Cl)cc1C)C(=O)OC [Compound 8] | 0 (herbicidal effect of not less than 0% by weight and less than 10% by weight) | 0 (herbicidal effect of not less than 0% by weight and less than 10% by weight) | 0 (herbicidal effect of not less than 0% by weight and less than 10% by weight) | 0 (herbicidal effect of not less than 0% by weight and less than 10% by weight) | 0 (herbicidal effect of not less than 0% by weight and less than 10% by weight) | 5 (herbicidal effect of not less than 90% by weight) | 5 (herbicidal effect of not less than 90% by weight) | 4 (herbicidal effect of not less than 70% by weight and less than 90% by weight) | 5 (herbicidal effect of not less than 90% by weight) | 4 (herbicidal effect of not less than 70% by weight and less than 90% by weight) | 4 (herbicidal effect of not less than 70% by weight and less than 90% by weight) | 4 (herbicidal effect of not less than 70% by weight and less than 90% by weight) | 4 (herbicidal effect of not less than 70% by weight and less than 90% by weight) | 4 (herbicidal effect of not less than 70% by weight and less than 90% by weight) | 5 (herbicidal effect of not less than 90% by weight) | 5 (herbicidal effect of not less than 90% by weight) | 4 (herbicidal effect of not less than 70% by weight and less than 90% by weight) |
| COC=C(Cn1nc(-c2ccccc2)c(C)c1C)C(=O)OC [Compound 33] | 1 (herbicidal effect of not less than 10% by weight and less than 30% by weight) | 0 (herbicidal effect of not less than 0% by weight and less than 10% by weight) | 0 (herbicidal effect of not less than 0% by weight and less than 10% by weight) | 0 (herbicidal effect of not less than 0% by weight and less than 10% by weight) | 0 (herbicidal effect of not less than 0% by weight and less than 10% by weight) | 5 (herbicidal effect of not less than 90% by weight) | 5 (herbicidal effect of not less than 90% by weight) | 4 (herbicidal effect of not less than 70% by weight and less than 90% by weight) | 5 (herbicidal effect of not less than 90% by weight) | 4 (herbicidal effect of not less than 70% by weight and less than 90% by weight) | 4 (herbicidal effect of not less than 70% by weight and less than 90% by weight) | 4 (herbicidal effect of not less than 70% by weight and less than 90% by weight) | 4 (herbicidal effect of not less than 70% by weight and less than 90% by weight) | 5 (herbicidal effect of not less than 90% by weight) | 5 (herbicidal effect of not less than 90% by weight) | 5 (herbicidal effect of not less than 90% by weight) | 5 (herbicidal effect of not less than 90% by weight) |
